Calls of active or inactive are those of the source. The rule behind the calls is not given here.
What was measured:
Escherichia coli = experiment: Antibacterial activity against Escherichia coli DH5a incubated for 18 hrs by spectrophotometric based microdilution assay; type: functional, organism-based
HeLa = experiment: Cytotoxicity against human HeLa cells incubated for 24 hrs by MTT assay; type: toxicity, cell-based
KB 3-1 = experiment: Cytotoxicity against human KB-3-1cells incubated for 24 hrs by MTT assay; type: toxicity, cell-based; conditions: kb 3-1, 24 h

Question: Which results are given for `C=C([C@@H]1CC=C(C)CC1)[C@H](O)[C@H]1C[C@@H](C)C(=O)O1`?
Answer: Activity (Escherichia coli): inactive; Activity (HeLa): Non-Toxic; Activity (KB 3-1): Non-Toxic

Question: How did the Activity (HeLa) turn out when `C=C([C@H]1CC=C(C)CC1)[C@H](O)[C@H]1C[C@@H](C)C(=O)O1` was run?
Answer: Non-Toxic

Question: And the Activity (KB 3-1)?
Answer: Non-Toxic

Question: Which Activity (Escherichia coli) does the source give for `C=C([C@H]1CC=C(C)CC1)[C@@H](O)[C@H]1C[C@@H](C)C(=O)O1` here?
Answer: inactive

Question: What about the Activity (HeLa) of the same compound?
Answer: Non-Toxic

Question: What about the Activity (KB 3-1) of the same compound?
Answer: Non-Toxic

Question: What does the source list for `C=C([C@@H]1CC=C(C)CC1)[C@@H](O)[C@H]1C[C@@H](C)C(=O)O1`?
Answer: Activity (HeLa): Non-Toxic; Activity (KB 3-1): Non-Toxic
